# Source: patent publication US9897592B2, “Methods for identifying arthropod repellents and attractants, and compounds and compositions identified by such methods” (The Regents of the University of California, priority 2013, dated 2018)
# Structures can show the parent of a compound that is named as a salt. Where two headings read alike, the source gives them in different places.
# Columns and labels:
# CO2 receptor neuron = assay: Amines: inhibition of CO2 receptor neuron activity; format: cell-based; design: % Inhibition: concentration or dose not given beside the values
# cpA neuron = assay: Single-sensillum recording: activation of cpA neuron by odorants; format: cell-based, Aedes aegypti; details: for Activation (spikes s^−1): A. aegypti cpA, 0.5-s pulses, odorants 10^−2 in paraffin oil or water, solvent response subtracted; for Activation (spikes s−1): cpA neuron, 20 compounds from the top 200 SVM ligand predictions, negative values = inhibition, N = 4
# Protocol: FIG. 3b depicts representative traces and mean responses of the A. aegypti cpA neuron to 0.5-s pulses of 138 predicted compounds screened using single-sensillum recordings, in which odorants were diluted to 10^−2 in paraffin oil or water, and responses to solvent have been subtracted, n=2-6, and error bars are s.d.
# FIG. 5f is a bar graph illustrating the mean responses of the A. aegypti cpA neuron to 0.5-s pulses of 22 newly predicted compounds screened as in FIG. 3b, where salmon bars correspond to odorants found in human odor, odorants were diluted to 10^−2 in paraffin oil or water, and responses to solvent have been subtracted, and n=2-5.
# Adult female A. aegypti (Linnaeus 1762) (Rockefeller strain) A. gambiae sensu stricto Giles 1902 (G3 strain), or C. quinquefasciatus Say 1823 were tested 3-12 days post-emergence with single-sensillum extracellular recordings. Chemicals were obtained from Sigma-Aldrich at the highest purity (typically >99%) and were dissolved in paraffin oil or water. […] Response to clean beads was subtracted from the results reported. Only sensilla with cpA activity of <20 spikes s^−1 to negative control were considered for analysis.
# CpA-off and sham treated mosquitoes were pre-treated for 3 min in an upended 1 L glass dish in which 100 μl of fresh butyryl chloride (1%) or paraffin oil was allowed to vaporize for 10-20 min. The odor delivery system for different screens is shown in FIG. 7b; solvent responses during the same recording session were subtracted. Inhibition screen was tested. For the ultra-prolonged activator the 3-s stimulus was delivered from a 10 ml disposable pipette using a CS-55 stimulus controller (Syntech), CO2 was delivered, and responses to subsequent odor stimuli were calculated by subtracting baseline activity 1 s prior to each stimulus. When responses to repeated pulses of cyclopentanone and CO2 were compared, baseline activity between seconds 5 and 6 following each stimulus was subtracted. Spike counting was done manually or with Igor Pro6.2 (Wavemetrics) with the Neuromatic v2.00 macro (by Jason Rothman), and peak-to-peak spike amplitudes for FIG. 8 were analysed in Clampfit 10.3 (Molecular Devices).
# From the large list of cpA receptor ligands predicted from Example 3 above, 138 compounds were selected based on desirable criteria for application such as smell, presence in natural sources, human safety profile, and cost to procure. These compounds were tested individually using single-sensillum electrophysiology on the cp sensillum of female A. aegypti, according to the procedure described in Example 1 above.
# [1] = inhibition of CO2 receptor neuron activity by amines
SMILES,Activation (spikes s^−1) (cpA neuron),also measured
NCCCNCCCCNCCCN,–,% Inhibition (CO2 receptor neuron): 94.81%
CN1CCCC1 [1-methylpyrrolidine],–,% Inhibition (CO2 receptor neuron; [1]): 100%
CCCc1ccc(O)cc1 [4-propylphenol],−9.0,–
CCCc1ccncc1 [4-propylpyridine],34.0,–
"c1cnc2c(n1)CCCC2 [5,6,7,8-tetrahydroquinoxaline]",−5.5,–
"C=Cc1scnc1C [5-ethenyl-4-methyl-1,3-thiazole]",50.5,–
CC1=CCC(=O)O1 [5-methyl-3H-furan-2-one],56.0,–
"Cc1cc(O)cc(O)c1 [5-methylbenzene-1,3-diol]",0.5,–
CC1CCC(=O)O1 (stereo not shown) [5-methyloxolan-2-one],10.0,–
OCCCCCc1ccccc1 [5-phenylpentan-1-ol],−3.0,–
CCCCCCC1CCCC(=O)O1 (stereo not shown) [6-hexyloxan-2-one],1.5,–
Cc1ccc2ncccc2c1 [6-methylquinoline],9.5,–
"CC(C)=CCC/C(C)=C/C(=O)O [(2E)-3,7-dimethylocta-2,6-dienoic acid]",3.0,–
CC(C)[C@H](N)C(=O)O [(2S)-2-amino-3-methylbutanoic acid],3.5,–
O=C(O)[C@@H]1CCCN1 [(2S)-pyrrolidine-2-carboxylic acid],3.5,–
C/C=C(\C)C(=O)O [(E)-2-methylbut-2-enoic acid],2.5,–
C/C=C/C(=O)O [(E)-but-2-enoic acid],−1.5,–
CCC/C=C/CO [(E)-hex-2-en-1-ol],31.0,–
CC/C=C/C=O [(E)-pent-2-enal],−5.0,–

SMILES,Activation (spikes s^−1) (cpA neuron),also measured
CC/C=C\CCO [(Z)-hex-3-en-1-ol],2.5,–
CCCCCC/C=C\CO [(Z)-non-2-en-1-ol],−1.5,–
CC/C=C\CCCCCO [(Z)-non-6-en-1-ol],2.0,–
"NCCCCNCCCN [N-(3-aminopropyl)-1,4-butanediamine]",–,% Inhibition (CO2 receptor neuron; [1]): 92.25%
CNC [N-methylmethanamine],–,% Inhibition (CO2 receptor neuron): 100%
c1ccsc1 [Thiophene],116.6,–
"CC(C)=CCC/C(C)=C/COC=O [[(2E)-3,7-dimethylocta-2,6-dienyl] formate]",−2.5,–
O=COC/C=C/c1ccccc1 [[(E)-3-phenylprop-2-enyl] formate],3.0,–
CC(=O)CC(=O)OCc1ccccc1 [benzyl 3-oxobutanoate],−1.5,–
O=COCc1ccccc1 [benzyl formate],8.0,–
CCC(C)O (stereo not shown) [butan-2-ol],–,Activation (spikes s−1) (cpA neuron): 63.8 spikes s−1
"CC(S)C(C)S (stereo not shown) [butane-2,3-dithiol]",25.0,–
"O=C1CCCC(=O)C1 [cyclohexane-1,3-dione]",1.5,–
OC1CCCCC1 [cyclohexanol],59.0,–
C1CCCC1 [cyclopentane],–,Activation (spikes s−1) (cpA neuron): 41.8 spikes s−1
OC1CCCC1 [cyclopentanol],–,Activation (spikes s−1) (cpA neuron): 49.8 spikes s−1
OCC1CCCC1 [cyclopentylmethanol],47.5,–
COC(=O)OC [dimethyl carbonate],73.6,–
